Results as given in patent US8084500B2, “Method of using catalpic acid to treat dyslipidemia” (Nutrition Therapeutics, Inc., priority 2005, dated 2011).
Like-named read-outs stand apart in the source and are kept apart here. Marks after values point to notes of the source that are not given here.

Tests used:
PPAR alpha = conditions: for PPAR alpha mRNA expression in white adipose tissue: n = 10
Description: (§1) On day 28 or 78 of Experiments 1 and 2, visceral white adipose tissue (WAT) or pancreas samples were collected, stored in RNA later and frozen at −80° C. The dissection of intra-abdominal WAT was performed under magnification. RNA was isolated from WAT and pancreas specimens utilizing RNA isolation columns (Qiagen, Valencia, Calif.) per the manufacturer's instructions. RNA from the WAT was isolated using the Lipid Minikit (Qiagen). RNA was quantified using a μQuant microplate reader (Bio-TEK® Instruments, Inc., Winooski, Vt.). Briefly, total RNA (1 μg) from each sample was used to generate complementary DNA (cDNA) template using the iScript cDNA Synthesis Kit (Bio-Rad, Hercules, Calif.). The total reaction volume was 20 μl. The reaction was incubated as follows in a Tetrad Thermocycler (MJResearch, Waltham, Mass.): 5 minutes at 25° C., 30 minutes at 42° C., 5 minutes at 85° C., hold at 4° C. cDNA products were diluted 1:10 in diethylpyrocarbonate-treated water. Controls were also performed with no RNA template (no template) and omitting the reverse transcriptase enzyme (no RT).
(§2) The PCR primer pairs were designed based on previously published sequences (GenBank) using the Oligo 6 primer design software (Molecular Biology Insights, Cascade, Colo.). The PCR primer pair sequences, annealing temperatures, accession numbers and PCR product lengths are outlined in Table 5. […] Each gene amplicon was purified by using the MiniElute PCR Purification kit (Qiagen). The purified amplicon for each gene was quantified on an agarose gel using a DNA mass ladder. These purified amplicons were further used to optimize the real-time PCR conditions and to generate the standard curves in the real-time PCR assay. Primer concentrations and annealing temperatures were optimized for the iCycler iQ System (Bio-Rad) for each set of primers using the system's gradient protocol.
(§3) Messenger RNA (mRNA) expression of peroxisome proliferator-activated receptor (PPAR) gamma, PPAR alpha, and PPAR delta was determined in adipose tissue. […] Therefore, we also examined the expression of four PPAR alpha-responsive genes in WAT, including acyl-coenzyme A dehydrogenase (ACDH), stearoyl-coenzyme A desaturase (SCD1), enoyl-coenzyme A hydratase (ECH) and carnitine palmitoyl transferase-1 (Cpt-1).
(§4) Transcript expression was examined by real-time, quantitative PCR by using an iCycler iQ System and the iQ SYBR Green Supermix (Bio-Rad). Real-time PCR was used to measure the starting amount of nucleic acid by assaying each unknown starting quantity of cDNA on a 96-well plate. For each gene, the results were calculated as starting quantity of cDNA (picograms) per microgram of RNA.

[1] = test system: stearoyl-coenzyme A desaturase (SCD1); conditions: n = 10
Description: as §1, §2, §3, §4

[2] = test system: enoyl-coenzyme A hydratase (ECH); conditions: n = 10
Description: as §1, §2, §3, §4

PPAR gamma = conditions: C57BL/6J wild-type mice, 78 days, n = 10
Description: as §1, §2, §3, §4

db/db mice [3] = conditions: 0-180 min after glucose injection, all time points, FIG. 2B
Description: (§5) Mice were weighed on a daily basis and examined for clinical signs of disease by blinded observers. Water and feed intake were assessed on a daily basis. Fasting (12 h) glucose and insulin concentrations were determined on days 0, 7, 15, 21 and 28, of the study. Briefly, blood was collected via the caudal vein and placed onto capillary blood collection tubes. Insulin concentrations were determined by using a commercially available insulin enzyme-linked immunosorbent assay (ELISA) (Linco Research, St Charles, Mo.) per manufacturer's instructions. Mice were administered a glucose tolerance test and euthanized by CO2 narcosis on day 28 of the study. For the glucose tolerance test, animals were fasted overnight (12 hours), injected intraperitoneally with D-glucose (2 g/kg body weight) and blood samples were collected via the caudal vein prior to the injection (time 0) and at 15, 30, 60, 90, 120 and 180 minutes following the injection to determine the effect of CAT on the kinetics of glucose normalization.

db/db mice [4] = test system: db/db mice
Description: Mice were purchased from Harlan (Indianapolis, Ind.). Following an acclimation period of 5 days on regular rodent chow they were fed purified, high fat diets that represented a modification of the AIN-93G rodent diet in which the nutritional requirements, including those for polyunsaturated fatty acids (PUFA), were met or exceeded.
Stock fatty acid solutions, e.g., soybean oil or catalpic acid were kept at −20° C. and nitrogen-purged every time that the bottles were opened. All the experimental diets contained the same amount of energy (isocaloric) and protein (isonitrogenous). To maintain the diets isocalorically, catalpic acid replaced soybean oil in the catalpic acid diet. We utilized male, db/db [BKS.Cg-+Lepr^db/+Lepr^db/OlaHsd (type 2 Diabetic)] mice (n=20) weighing 19.86 g on day 1 of the study. The db/db mice lack the long isoform of leptin receptor and represent a well-established model of type 2 Diabetes and are often utilized to determine the pre-clinical efficacy of antidiabetic drugs. Half of the mice were fed a control and the other half a catalpic acid-supplemented diet (1 g catalpa oil/100 g diet).
as §5

C57BL6 mice [5] = test system: C57BL6 mice
Description: A glucose tolerance test was conducted on day 78 of the experiment. Animals were fasted overnight (14 hours). Mice were injected intraperitoneally with D-glucose (1 g/kg body weight) and blood samples were collected via the tail vein prior to the injection (time 0) and at 15, 30 and 60 minutes following the injection.

C57BL6 mice [6] = conditions: for White adipose tissue, g (abdominal) / Brown adipose tissue, g (interscapular) / Glucose (mg/dL), plasma fasting / Insulin (ng/mL), plasma fasting: C57BL6 mice, day 78; for White adipose tissue, g (abdominal): least squares mean
Source text: In Western countries the Metabolic Syndrome or Syndrome X (i.e., diabetes, obesity, cardiovascular disease, hypertension and hyperlipidemia) is on a steady rise. […] A total of forty-seven C57BL6 mice were used in experiment 1. Twenty-five mice were fed a control diet and […] mice were fed a diet supplemented with catalpic acid (0.6 g catalpic acid/100 g food). For the first 32 days of the experiment all diets contained 7% fat, 0.02% total cholesterol, and they obtained 14.5% of calories from fat by replacing catalpic acid with linoleic acid (wt/wt basis) in the control diet.
These diets are defined as regular diets and were formulated to be isocaloric between treatment groups. On day 32 of the experiment, twenty mice within each group were fed high fat diets containing 19.6% fat, 0.2% total cholesterol that obtained 40.1% of calories from fat by replacing catalpic acid with lard (wt/wt basis) in the control high fat diet.
The high fat diets were also formulated to be isocaloric between treatment groups. The remaining mice within each group (n=5) were fed the regular diets. On day 78 of the experiment, mice were killed, and blood was collected and immediately analyzed for fasting glucose concentrations by using the Accu-Check Instant Plus System (Roche Diagnostics Corporation, Indianapolis, Ind.) or stored for subsequent analysis of insulin and lipid concentrations in plasma. Abdominal white adipose tissue and interscapular brown adipose tissue were collected, weighed and stored at −80° C. for RNA analyses. Liver, lungs, kidneys, pancreas and heart were examined for macroscopic abnormalities (gross lesions), fixed in phosphate-buffered formalin (10%) and processed for histological evaluation. All specimens were generally labeled with the following information: 1) mouse number; 2) date collected; 3) experiment number; 4) type of solvent; and 5) tissue type.
Serum insulin concentrations were determined by using commercially available enzyme-linked immunosorbent assay kits (Linco Research, St. Charles, Mo.).

[7] = test system: obese mice fed high-fat diets; conditions: CAT-supplemented high-fat diets
Description: Experiment 3 was conducted as described for Experiments 1 and 2 as indicated below except that determination of plasma lipid concentrations and quantitative real-time PCR were performed.
Serum HDL cholesterol concentrations were determined by using a commercial precipitation assay (Wako Diagnostics, Richmond, Va.) per the manufacturer's instructions.

[8] = C57BL/6J wild-type mice, 78 days
[9] = high fat diets, CAT-supplemented
[10] = regular diets, CAT-supplemented

Description for PPAR delta: On day 28 or 78 of Experiments 1 and 2, visceral white adipose tissue (WAT) or pancreas samples were collected, stored in RNA later and frozen at −80° C. The dissection of intra-abdominal WAT was performed under magnification. RNA was isolated from WAT and pancreas specimens utilizing RNA isolation columns (Qiagen, Valencia, Calif.) per the manufacturer's instructions. RNA from the WAT was isolated using the Lipid Minikit (Qiagen). RNA was quantified using a μQuant microplate reader (Bio-TEK® Instruments, Inc., Winooski, Vt.). Briefly, total RNA (1 μg) from each sample was used to generate complementary DNA (cDNA) template using the iScript cDNA Synthesis Kit (Bio-Rad, Hercules, Calif.). The total reaction volume was 20 μl. […]
The PCR primer pairs were designed based on previously published sequences (GenBank) using the Oligo 6 primer design software (Molecular Biology Insights, Cascade, Colo.). […] The purified amplicon for each gene was quantified on an agarose gel using a DNA mass ladder. […]
Messenger RNA (mRNA) expression of peroxisome proliferator-activated receptor (PPAR) gamma, PPAR alpha, and PPAR delta was determined in adipose tissue. Based on the patterns of expression of the nuclear receptors in each tissue, the expression of a relevant panel of responsive genes was evaluated by quantitative real-time PCR. […]

feed intake versus control (db/db mice [4]; high fat diet, FIG. 4B): No differences
fatty liver or enlarged viscera (C57BL6 mice [6]; mice fed catalpic acid-supplemented diets, Experiment 1): not observed
SMILES: CCCC\C=C/C=C/C=C/CCCCCCCC(=O)O [CAT, catalpic acid]
PPAR alpha mRNA expression in white adipose tissue (PPAR alpha; [8]): 0.005^a picograms of starting cDNA per microgram of white adipose tissue total RNA
PPAR alpha mRNA expression in white adipose tissue (PPAR alpha; db/db mice, 28 days): 0.0052^a picograms of starting cDNA per microgram of white adipose tissue total RNA
pancreatic concentrations of PPAR alpha and its responsive genes (PPAR alpha; pancreas of CAT-fed mice): unchanged
Stearoyl CoA Desaturase mRNA expression in white adipose tissue [1, 8]: 0.130^a picograms of starting cDNA per microgram of white adipose tissue total RNA
Stearoyl CoA Desaturase mRNA expression in white adipose tissue ([1]; db/db mice, 28 days): 0.095^a picograms of starting cDNA per microgram of white adipose tissue total RNA
Enoyl CoA Hydratase mRNA expression in white adipose tissue [2, 8]: 0.0039^a picograms of starting cDNA per microgram of white adipose tissue total RNA
Enoyl CoA Hydratase mRNA expression in white adipose tissue ([2]; db/db mice, 28 days): 0.0024 picograms of starting cDNA per microgram of white adipose tissue total RNA
PPAR gamma mRNA expression in white adipose tissue (PPAR gamma): 0.074 picograms of starting cDNA per microgram of white adipose tissue total RNA
glucose normalizing ability versus control (db/db mice [3]): greater
difference in WAT weight between groups attributable to catalpic acid (db/db mice [4]; day 28): over 10%
abdominal WAT weight versus control (db/db mice [4]; day 28, FIG. 5): significantly lower
body weight versus control (db/db mice [4]; high fat diet, FIG. 4A): No differences
glucose concentrations (db/db mice [4]; high fat diet, day 28 (control 425 mg/dl)): 290 mg/dL
fasting plasma insulin concentrations (db/db mice [4]; high fat diet, days 0-28, remained at basal levels, FIG. 3): lower than 4 ng/ml
fasting plasma glucose versus high fat control diet (db/db mice [4]; high fat diet, days 14, 21 and 28, P<0.05, FIG. 2A): lower
glucose tolerance versus control (C57BL6 mice [5]; mice fed high fat diets, FIG. 1B): normalizes impaired glucose tolerance
glucose tolerance versus control (C57BL6 mice [5]; mice fed regular diets, FIG. 1A): not different
PPAR delta mRNA expression in white adipose tissue (PPAR delta; C57BL/6J wild-type mice, 78 days, n = 10): 0.007 picograms of starting cDNA per microgram of white adipose tissue total RNA
PPAR delta expression in the pancreas (PPAR delta; pancreas of CAT-fed mice, P<0.04): 0.069
White adipose tissue, g (abdominal) (C57BL6 mice [6]; high fat diets from day 32, CAT-supplemented): 0.607^b g
Brown adipose tissue, g (interscapular) (C57BL6 mice [6]; [9]): 0.105 g
Glucose (mg/dL), plasma fasting (C57BL6 mice [6]; [9]): 205.43^b mg/dL
Insulin (ng/mL), plasma fasting (C57BL6 mice [6]; [9]): 0.730^b ng/mL
Brown adipose tissue, g (interscapular) (C57BL6 mice [6]; [10]): 0.169 g
Glucose (mg/dL), plasma fasting (C57BL6 mice [6]; [10]): 146.20^b mg/dL
Insulin (ng/mL), plasma fasting (C57BL6 mice [6]; [10]): 0.960^b ng/mL
White adipose tissue, g (abdominal) (C57BL6 mice [6]; [10]): 0.751^b g
plasma triglyceride concentrations versus control high-fat diet ([7]; mice, FIG. 6B): lower
HDL cholesterol concentrations versus control high-fat diet ([7]; obese mice, FIG. 6A): greater
